The record followed here is patent US9645147B2, “Recombinant polypeptide construct comprising Plasmodium falciparum circumsporozoite protein HLA class I restricted T-cell epitopes” (priority 2013, dated 2017).

Common to all, as to assay type: cell-based, human
One assay deals with CD8+ T cells. Put plainly: Intracellular cytokine staining (ICS), IFN-γ, CD8+ population. The protocol:
(§1) Intracellular cytokine staining (ICS) was performed as published previously (Stewart, et al, Infect. Immun., 75: 2283-90 (2007)). Cryopreserved PBMC were thawed, washed, and resuspended at 10×10^6 cells per mL in complete medium. Peptides were used at 10 μg/mL and costimulatory antibodies anti-CD28 and […] (BD Bioscience, San Jose, Calif.) were used at 1 μg/mL. Stimulants were added to cells and incubated at 37° C. with 5% CO2 for 2 hours. Cells were stained with anti-CD3, anti-CD4, anti-CD8, anti-IFN-γ, anti-TNFα, and anti-IL2 and the entire available sample was acquired on a BD LSRII using FACSDiVa (BD Bioscience) software. Data were analyzed using FlowJo Software (Treestar, Inc.). The gating strategy involved progressively measuring total cells; viable cells; lymphocytes; T cells; CD4+ or CD8+ populations; and finally a specific cell type expressing a specific cytokine. Results were transferred to Prism (GraphPad) for graphing and statistical analysis. Data for peptides were corrected for media responses. A positive response was greater than the medium controls+3 standard deviations (0.03%).

Assay [1] relates to PBMC depleted of T-cell subsets. Put plainly: ELISpot IFN-γ after T-cell subset depletion (CD4+ or CD8+ Dynabeads, mock control). An excerpt: For characterization of ELISpot IFN-γ-producing cells by T-cell subset depletions PBMC were depleted of T-cell subsets using anti-human CD4+ or anti-CD8+ coated Dynabeads M-450 (Dynal, Great Neck, N.Y.) following the manufacturer's instructions. Mock depletion was done with Dynabeads coated with sheep anti-mouse IgG. Flow cytometry confirmed that T-cell subset depletions were >99% in all experiments. Data are presented as the spot-forming cells/million (sfc/m) and percent decrease or increase in activity after depletion.
To further evaluate the predicted epitopes, ELISpot depletion assays were performed using PBMC from four volunteers stimulated with six predicted and tested epitopes. CD8+ T cell depletion reduced responses to Cp1 and Cp9 by 82%100%.

For a further assay, the system named is CD4+ T cells. Put plainly: Intracellular cytokine staining (ICS), IFN-γ, CD4+ population. The protocol:
as §1

The test system of assay [2] is PBMC from volunteers immunized with Ad-CA or Ad-C. Put plainly: IFN-γ ELISpot assay with cryopreserved PBMC of immunized volunteers. Particulars: for ELISpot response to synthesized epitope (in words): volunteers, positive = p<0.05, at least doubling and at least ten sfc over negative control; for Epitope sfc/m: Table 4; for 15 mer sfc/m: Table 2, individual 15mer at 10 μg/mL; for ELISpot response to individual 15mer peptide (in words): volunteers immunized with Ad-CA or Ad-C. On the procedure:
Previous studies have confirmed that recall-T cell responses, as assayed by ELISpot, are detected using cryopreserved PBMCs although such responses are generally of a lower magnitude than fresh cells (Sedegah, et al., Malar J., 9: 241 (2011)).
The positive control was commercially obtained Class I Peptide Pool Plus (Anaspec, USA). Negative control was media with all supplements but no antigen-specific stimulant.
Throughout the studies, IFN-γ ELISpot assays were conducted as previously described (Sedegah, et al., Malar J., 9: 241 (2011); Wang, et al., PNAS (USA), 98: 10817-22 (2001)). Cryopreserved PBMC were suspended in 100 μL complete medium and stimulated with CSP peptides in 100 μL of complete medium at a final concentration of 10 μg/mL of each peptide tested (Wang, et al., PNAS (USA), 98: 10817-22 (2001)).
Cultures were incubated for 36 hours at 37° C., 5% CO2. Depending on availability of cells, each PBMC sample was assayed in duplicate, triplicate, or quadruplicate and the number of IFN-γ-secreting spot forming cells (sfc) was counted using an automated ELISpot reader (AID, GmbH, Germany). In duplicate assays, all values were used in analysis. […] The mean number of sfcs obtained in negative control wells was subtracted from the value of each test well from the same sample. Negative counts generated by this background subtraction were converted to zero. The mean number of spots of the test sample was then calculated and expressed as spot forming cells/million (sfc/m). A positive response was defined as a significant difference (p=<0.05) between average of the number of spot forming cells (sfc) in test wells and the average of negative control wells (Student's two tailed t-test), and at least a doubling of sfc in test wells relative to negative control wells, and a difference of at least ten sfc between test and negative control wells (Sedegah, et al., PLoS One, 6: e24586 (2011)).

[3] abbreviates: ICS assays, volunteers of Table 6.
Setting [4] is: volunteer 156 (Ad-CA), synthesized 8-10mer epitope.
Where [5] appears, read: volunteer 58 (Ad-C), synthesized 8-10mer epitope.

Entries after “also recorded” stand apart in the source; their conditions may differ. Peptide text beside a SMILES is read from it.

Take `CC(C)C[C@H](NC(=O)[C@H](C)NC(=O)[C@H](CCC(=O)O)NC(=O)[C@@H](NC(=O)[C@H](Cc1ccccc1)NC(=O)[C@H](CC(C)C)NC(=O)[C@@H](N)Cc1ccccc1)C(C)C)C(=O)N[C@@H](Cc1ccccc1)C(=O)N[C@@H](CCC(N)=O)C(=O)O` [Epitope E1a] (H-FLFVEALFQ-OH; N-terminus and C-terminus assumed): the “ICS CD8+ T cell recall responses (in words)” value with CD8+ T cells (setting [3]) is given as “positive”. The “CD8+ % (per cent of CD8+ T cells expressing IFN-γ)” value in the assay on CD8+ T cells (V156, ICS, positive >0.03%) stood at 0.34%. Moreover, the “confirmation as recalling CD8+ T cell responses” value in assay [1] (ELISpot depletion and ICS studies) is reported as “confirmed as recalling CD8+ T cell responses”. Further, in assay [1] (V156, after CD4+ T cell depletion), the “CD4+ depl. sfc/m” value was found to be 215 sfc/m. The “CD4+ depl. (%) percent change in ELISpot activity” value in assay [1] (V156, after CD4+ T cell depletion vs control depletion) is reported as −12%. In assay [1] (V156, after CD8+ T cell depletion), the “CD8+ depl. sfc/m” value turned out to be 91 sfc/m. In addition, in assay [1] (V156, after CD8+ T cell depletion vs control depletion), the “CD8+ depl. (%) percent change in ELISpot activity” value is on record as −73%. In assay [1] (V156, mock (control) depletion), the Control dept. sfc/m was determined as 245 sfc/m. For the same molecule, the “ICS CD4+ T cell recall responses (in words)” value in the assay with CD4+ T cells (setting [3]) is “negative”. Also, the “CD4+ % (per cent of CD4+ T cells expressing IFN-γ)” value in the assay with CD4+ T cells (V156, ICS, positive >0.03%) came out at 0.03%. The “ELISpot response to synthesized epitope (in words)” value in assay [2] is “demonstrated activity”.
Regarding `CC(C)C[C@H](NC(=O)[C@H](C)NC(=O)[C@H](CCC(=O)O)NC(=O)[C@@H](NC(=O)[C@H](Cc1ccccc1)NC(=O)[C@@H](N)CC(C)C)C(C)C)C(=O)N[C@@H](Cc1ccccc1)C(=O)N[C@@H](CCC(N)=O)C(=O)N[C@@H](CCC(=O)O)C(=O)N[C@@H](Cc1ccc(O)cc1)C(=O)O` [Epitope E3] (H-LFVEALFQEY-OH; N-terminus and C-terminus assumed), the Epitope sfc/m in assay [2] (volunteer 69 (Ad-C), synthesized 8-10mer epitope) was 259 sfc/m; in assay [2] (volunteer 127 (Ad-CA), synthesized 8-10mer epitope), 99 sfc/m. In addition, in assay [2], the “ELISpot response to synthesized epitope (in words)” value is reported as “active; also recorded: positive; also recorded: demonstrated activity”.
In assay [2] (setting [4]), `CC[C@H](C)[C@H](NC(=O)[C@@H](N)CC(C)C)C(=O)N[C@@H](CCSC)C(=O)N[C@H](C(=O)N[C@@H](CC(C)C)C(=O)N[C@@H](CO)C(=O)N[C@@H](Cc1ccccc1)C(=O)N[C@@H](CC(C)C)C(=O)N[C@@H](Cc1ccccc1)C(=O)N[C@@H](CC(C)C)C(=O)O)C(C)C` [Epitope E17] gave an Epitope sfc/m of 156 sfc/m. In assay [2], the “ELISpot response to synthesized epitope (in words)” value is listed as “positive”.
For the molecule `CC[C@H](C)[C@H](NC(=O)[C@H](C)N)C(=O)N[C@@H](CC(C)C)C(=O)N[C@@H](CO)C(=O)N[C@H](C(=O)N[C@@H](CO)C(=O)N[C@@H](CO)C(=O)N[C@@H](Cc1ccccc1)C(=O)N[C@@H](CC(C)C)C(=O)O)C(C)C` [Epitope E18a], in assay [2], the “ELISpot response to synthesized epitope (in words)” value is “demonstrated activity”.
Consider AILSVSSFLF [Epitope E18], for which the Epitope sfc/m in assay [2] (volunteer 63 (Ad-C), synthesized 8-10mer epitope) turned out to be 41 sfc/m. For the same molecule, the “ELISpot response to synthesized epitope (in words)” value in assay [2] is “positive”.
The molecule DKHIKEYLNKIQNSL [Cp6-C47] came in with a 15 mer sfc/m in assay [2] (volunteer 61 (Ad-C)) of 48 sfc/m.
“EALFQEYQCYGSSSN [Cp1-05, 15mer CSP peptide aa 17-31]” yielded a 15 mer sfc/m in assay [2] (volunteer 58 (Ad-C)) of 105 sfc/m.
The molecule “EKKICKMEKCSSVFN [Cp9-C60, 15mer CSP peptide aa 365-379]” registered a 15 mer sfc/m in assay [2] (volunteer 61 (Ad-C)) of 39 sfc/m.
In assay [2] (volunteer 41 (Ad-C)), “ELNYDNAGTNLYNEL [Cp2-C10, 15mer CSP peptide aa 37-51]” displayed a 15 mer sfc/m of 35 sfc/m.
As for FLFVEALFQE [Epitope E1], the values for the Epitope sfc/m in assay [2] (setting [5]) and in assay [2] (setting [4]) were 49 sfc/m and 105 sfc/m, respectively. Also, in assay [2], the “ELISpot response to synthesized epitope (in words)” value is reported as “active; also recorded: positive; also recorded: demonstrated activity”.
Consider “FLFVEALFQEYQCYG [Cp1-C4, 15mer CSP peptide aa 13-27]”, for which the 15 mer sfc/m in assay [2] (volunteer 01 (Ad-CA)) is on record as 48 sfc/m; in assay [2] (volunteer 05 (Ad-CA)) it was 44 sfc/m; in assay [2] (volunteer 12 (Ad-CA)), 87 sfc/m; in assay [2] (volunteer 69 (Ad-C)), 368 sfc/m. Also, in assay [2], the “ELISpot response to individual 15mer peptide (in words)” value was “positive”.
As for “IMVLSFLFL (listed as Plasmodium falciparum) [Epitope E21, CSP aa 388-396]”, the Epitope sfc/m in assay [2] (volunteer 125 (Ad-CA), synthesized 8-10mer epitope) is 29 sfc/m. For the same molecule, the “ELISpot response to synthesized epitope (in words)” value in assay [2] is recorded as “low to modest response; also recorded: demonstrated activity”.
For “KCSSVFNVVNSSIGL [Cp9-C62, 15mer CSP peptide aa 373-387]”, the 15 mer sfc/m in assay [2] (volunteer 01 (Ad-CA)) came to 116 sfc/m.
As to KEYLNKIQNSLSTEW [Cp6-C48], the values for the 15 mer sfc/m in assay [2] (volunteer 05 (Ad-CA)), in assay [2] (volunteer 41 (Ad-C)) and in assay [2] (volunteer 58 (Ad-C)) were 106 sfc/m, 103 sfc/m and 45 sfc/m, respectively. For the same molecule, the “ELISpot response to individual 15mer peptide (in words)” value in assay [2] was “positive”.
Turning to “NELEMNYYGKQENWY [Cp2-C13, 15mer CSP peptide aa 49-63]”, the 15 mer sfc/m in assay [2] (volunteer 01 (Ad-CA)) is 116 sfc/m; in assay [2] (volunteer 12 (Ad-CA)), 334 sfc/m.
In assay [2] (volunteer 58 (Ad-C)), “QEYQCYGSSSNTRVL [Cp1-C6, 15mer CSP peptide aa 21-35]” came in with a 15 mer sfc/m of 83 sfc/m.
Turning to “SSIGLIMVLSFLFLN [Cp9-C65, 15mer CSP peptide aa 383-397]”, the 15 mer sfc/m is 46 sfc/m in assay [2] (volunteer 01 (Ad-CA)), 44 sfc/m in assay [2] (volunteer 02 (Ad-CA)) and 62 sfc/m in assay [2] (volunteer 08 (Ad-CA)).
Turning to SVFNVVNSSI [Epitope E13], the Epitope sfc/m in assay [2] (volunteer 37 (Ad-C), synthesized epitope, single value or first of two assays) came out at 28 sfc/m; in assay [2] (setting [5]), 80 sfc/m. In assay [2], the “ELISpot response to synthesized epitope (in words)” value is “positive; also recorded: demonstrated activity”.
As for “SVSSFLFVEALFQEY [Cp1-C3, 15mer CSP peptide aa 9-23]”, the 15 mer sfc/m was found to be 65 sfc/m in assay [2] (volunteer 05 (Ad-CA)), 29 sfc/m in assay [2] (volunteer 58 (Ad-C)) and 385 sfc/m in assay [2] (volunteer 69 (Ad-C)). Also, in assay [2], the “ELISpot response to individual 15mer peptide (in words)” value is “positive”.
“TNLYNELEMNYYGKQ [Cp2-C12, 15mer CSP peptide aa 45-59]”: the 15 mer sfc/m in assay [2] (volunteer 01 (Ad-CA)) came to 119 sfc/m; in assay [2] (volunteer 12 (Ad-CA)), 411 sfc/m.
Turning to “VFNVVNSSIGLIMVL [Cp9-C63, 15mer CSP peptide aa 377-391]”, the 15 mer sfc/m in assay [2] (volunteer 08 (Ad-CA)) came to 109 sfc/m; in assay [2] (volunteer 61 (Ad-C)) it was 80 sfc/m. The “ELISpot response to individual 15mer peptide (in words)” value in assay [2] is reported as “positive”.
On to “VNSSIGLIMVLSFLF [Cp9-C64, 15mer CSP peptide aa 381-395]”, for which, in assay [2] (volunteer 08 (Ad-CA)), the 15 mer sfc/m is on record as 91 sfc/m.
